The values below come from ChEMBL document CHEMBL3232786, “Therapeutic utility of cannabinoid receptor type 2 (CB(2)) selective agonists” (J Med Chem, 2013).

Data set [1] is filed under the species Rattus norvegicus. The data set is described as follows: Antiinflammatory activity in complete Freund's adjuvant-induced-rat. It counts as functional.
Data set [2] deals with Rattus norvegicus. The data set is described as follows: Antinociceptive activity in ip dosed skin incision rat model assessed as tactile allodynia administered 90 mins before skin incision measured after 30 mins. The format is functional.
Data set [3] is filed under the species Rattus norvegicus. The data set is described as follows: Antiinflammatory activity in rat chronic constriction injury model of neuropathic pain. The format is functional.
The species entered for data set [4] is Rattus norvegicus. The experiment in a line: Antiinflammatory activity in rat capsaicin-induced thermal hyperalgesia measured by paw withdrawal latency. The format is functional.
The target in data set [5] is T1, Cannabinoid receptor 2 (Homo sapiens, UniProt P34972). The data set is described as follows: Displacement of [3H]-CP55940 from human CB2 receptor transfected in CHO cells after 30 mins by liquid scintillation spectrometry. The format is cell-based.
The target of data set [6] is T2, Cannabinoid receptor 1 (Homo sapiens, UniProt P21554). The experiment in a line: Displacement of [3H]-CP55940 from human CB1 receptor transfected in CHO cells after 30 mins by liquid scintillation spectrometry. The format is cell-based. On the technique in general: Displacement assays read how much labelled ligand stays bound in the presence of the test substance.

For another data set, the species on record is Homo sapiens. The experiment in a line: Selectivity ratio of Ki for human CB1 receptor to Ki for human CB2 receptor.
Data set [7] concerns the target T1, Cannabinoid receptor 2. The experiment in a line: Agonist activity at human CB2 receptor expressed in Sf9 membranes assessed as effect on [35S]-GTPgammaS binding after 30 mins by scintillation counting. The format is functional, cell membranes.
A short description of data set [8]: AUC (0 to 24 hrs ) in dog at 30 mg/kg. It counts as ADME, organism-based, Canis lupus familiaris. Further details: dose 30 mg/kg. The settings on record: plasma.
A short description of data set [9]: Cmax in dog at 30 mg/kg. It counts as ADME, organism-based, Canis lupus familiaris. Further details: dose 30 mg/kg. The settings on record: in vivo.
Data set [10] deals with T2, Cannabinoid receptor 1. The data set is described as follows: Agonist activity at human CB1 receptor expressed in CHO cells assessed as effect on [35S]-GTPgammaS binding after 30 mins by scintillation counting. It counts as functional, cell-based.
The target of data set [11] is T2, Cannabinoid receptor 1. The data set is described as follows: Displacement of [3H]-CP55940 from human CB1 receptor by liquid scintillation counting in presence of serine protease inhibitor PMSF.
The target of data set [12] is T2, Cannabinoid receptor 1. The data set is described as follows: Displacement of [3H]-CP55940 from human CB1 receptor expressed in HEK293 cells after 90 mins by liquid scintillation counting. It counts as cell-based.
In data set [13] the target is Cannabinoid receptor 1 (Mus musculus, UniProt P47746). The data set is described as follows: Agonist activity at CB1 receptor in Swiss Webster mouse vas deferens assessed as inhibition of electrically-stimulated muscle contraction.
In data set [14] the target is T1, Cannabinoid receptor 2. The data set is described as follows: Displacement of [3H]-CP55940 from human CB2 receptor expressed in HEK293 cells after 90 mins by liquid scintillation counting. It counts as cell-based.
For data set [15], the target named is T1, Cannabinoid receptor 2. The data set is described as follows: Agonist activity at human CB2 receptor expressed in Saccharomyces cerevisiae MMY23 using fluorescein di-beta-D-glucopyranoside as substrate after 24 hrs by fluorescence-based assay.
Data set [16] addresses T2, Cannabinoid receptor 1. The experiment in a line: Agonist activity at human CB1 receptor expressed in Saccharomyces cerevisiae MMY23 using fluorescein di-beta-D-glucopyranoside as substrate after 24 hrs by fluorescence-based assay.
Data set [17] deals with T1, Cannabinoid receptor 2. The data set is described as follows: Displacement of [3H]Win55212-2 from human CB2 receptor expressed in CHO-K1 cells by liquid scintillation counting. The format is cell-based.
Data set [18] has as its target T2, Cannabinoid receptor 1. The experiment in a line: Displacement of [3H]-CP55940 from human CB1 receptor expressed in CHO-K1 cells by liquid scintillation counting. It counts as cell-based. The settings on record: read-out: EC50 (the source's name).
The target of data set [19] is T3, Cannabinoid receptor 1 (Rattus norvegicus, UniProt P20272). The experiment in a line: Displacement of [3H]-CP55940 from CB1 receptor of rat brain.
For data set [20], the target named is T2, Cannabinoid receptor 1. The experiment in a line: Displacement of [3H]-CP55940 from human CB1 receptor by liquid scintillation counting.
In data set [21] the target is T1, Cannabinoid receptor 2. The experiment in a line: Displacement of [3H]-CP55940 from human CB2 receptor expressed in HEK cells by liquid scintillation counting. The format is cell-based, HEK293.
Data set [22] deals with T4, Cannabinoid receptor 2 (Rattus norvegicus, UniProt Q9QZN9).
T4 sequence (Q9QZN9 whole entry): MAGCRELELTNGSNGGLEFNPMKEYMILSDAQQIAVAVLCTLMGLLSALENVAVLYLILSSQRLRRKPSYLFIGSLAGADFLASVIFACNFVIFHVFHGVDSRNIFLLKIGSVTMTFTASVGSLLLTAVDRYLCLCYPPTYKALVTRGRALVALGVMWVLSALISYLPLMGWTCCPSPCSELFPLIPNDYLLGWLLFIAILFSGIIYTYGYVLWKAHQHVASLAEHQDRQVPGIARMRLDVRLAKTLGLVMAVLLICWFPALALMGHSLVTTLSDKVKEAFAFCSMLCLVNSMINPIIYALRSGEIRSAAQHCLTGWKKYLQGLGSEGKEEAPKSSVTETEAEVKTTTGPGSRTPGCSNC
The data set is described as follows: Inverse agonist activity at rat CB2 receptor expressed in CHO-K1 cells assessed as inhibition of forskolin-induced cAMP accumulation. The format is functional, cell-based.

Data set [23] addresses T1, Cannabinoid receptor 2. The experiment in a line: Displacement of [3H]-CP55940 from human CB2 receptor expressed in CHO-K1 cells by liquid scintillation counting. It counts as cell-based.
Data set [24] can be described thus: Clearance in rat. The format is ADME, organism-based. The settings on record: in vivo.
The target in data set [25] is Transient receptor potential cation channel subfamily V member 1 (Homo sapiens, UniProt Q8NER1). The data set is described as follows: Activation of human VR1 expressed in HEK293 cells assessed as stimulation of Ca2+ influx. It counts as cell-based.
Data set [26] has as its target T3, Cannabinoid receptor 1. The data set is described as follows: Displacement of [3H]HU-243 from CB1 receptor of rat brain synaptosomal membranes.

T2 sequence (P21554 whole entry): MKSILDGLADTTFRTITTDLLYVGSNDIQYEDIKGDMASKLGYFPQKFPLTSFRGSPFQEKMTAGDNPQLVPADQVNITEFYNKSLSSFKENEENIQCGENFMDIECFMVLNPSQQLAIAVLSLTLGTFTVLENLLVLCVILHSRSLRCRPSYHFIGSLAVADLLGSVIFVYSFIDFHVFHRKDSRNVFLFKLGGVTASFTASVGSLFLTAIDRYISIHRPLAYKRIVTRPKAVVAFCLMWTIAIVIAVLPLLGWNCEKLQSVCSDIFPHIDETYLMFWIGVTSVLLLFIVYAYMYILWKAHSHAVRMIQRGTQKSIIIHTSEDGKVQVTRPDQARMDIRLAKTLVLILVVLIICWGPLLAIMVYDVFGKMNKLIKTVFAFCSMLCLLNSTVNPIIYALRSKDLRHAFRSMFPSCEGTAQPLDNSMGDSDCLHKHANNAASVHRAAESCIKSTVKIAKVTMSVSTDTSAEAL
T1 sequence (P34972 whole entry): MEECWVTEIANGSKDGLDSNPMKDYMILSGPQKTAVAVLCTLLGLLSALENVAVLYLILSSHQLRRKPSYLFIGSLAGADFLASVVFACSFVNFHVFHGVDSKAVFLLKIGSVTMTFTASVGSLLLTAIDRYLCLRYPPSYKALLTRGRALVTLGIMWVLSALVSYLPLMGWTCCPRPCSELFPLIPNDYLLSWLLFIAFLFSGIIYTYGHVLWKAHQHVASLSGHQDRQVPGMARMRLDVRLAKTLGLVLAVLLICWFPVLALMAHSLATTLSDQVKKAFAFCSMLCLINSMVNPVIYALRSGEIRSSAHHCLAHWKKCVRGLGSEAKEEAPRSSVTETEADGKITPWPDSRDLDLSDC
T3 sequence (P20272 whole entry): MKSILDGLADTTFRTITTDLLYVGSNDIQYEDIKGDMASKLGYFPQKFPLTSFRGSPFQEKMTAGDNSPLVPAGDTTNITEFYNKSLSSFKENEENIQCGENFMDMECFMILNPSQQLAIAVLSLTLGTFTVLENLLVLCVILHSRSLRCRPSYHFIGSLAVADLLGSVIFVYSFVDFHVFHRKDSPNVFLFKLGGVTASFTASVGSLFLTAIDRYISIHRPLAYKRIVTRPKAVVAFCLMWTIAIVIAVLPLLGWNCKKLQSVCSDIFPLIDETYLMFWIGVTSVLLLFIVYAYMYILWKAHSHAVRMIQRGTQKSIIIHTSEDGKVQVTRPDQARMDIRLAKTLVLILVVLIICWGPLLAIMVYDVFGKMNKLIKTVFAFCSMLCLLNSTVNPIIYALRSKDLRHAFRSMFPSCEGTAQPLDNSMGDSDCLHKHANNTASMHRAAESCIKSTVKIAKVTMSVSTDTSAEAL
Cannabinoid receptor 1 (Mus musculus, UniProt P47746), sequence (P47746 whole entry): as the sequence (P20272 whole entry) above, with E95D counted along it
Transient receptor potential cation channel subfamily V member 1, sequence (Q8NER1 whole entry): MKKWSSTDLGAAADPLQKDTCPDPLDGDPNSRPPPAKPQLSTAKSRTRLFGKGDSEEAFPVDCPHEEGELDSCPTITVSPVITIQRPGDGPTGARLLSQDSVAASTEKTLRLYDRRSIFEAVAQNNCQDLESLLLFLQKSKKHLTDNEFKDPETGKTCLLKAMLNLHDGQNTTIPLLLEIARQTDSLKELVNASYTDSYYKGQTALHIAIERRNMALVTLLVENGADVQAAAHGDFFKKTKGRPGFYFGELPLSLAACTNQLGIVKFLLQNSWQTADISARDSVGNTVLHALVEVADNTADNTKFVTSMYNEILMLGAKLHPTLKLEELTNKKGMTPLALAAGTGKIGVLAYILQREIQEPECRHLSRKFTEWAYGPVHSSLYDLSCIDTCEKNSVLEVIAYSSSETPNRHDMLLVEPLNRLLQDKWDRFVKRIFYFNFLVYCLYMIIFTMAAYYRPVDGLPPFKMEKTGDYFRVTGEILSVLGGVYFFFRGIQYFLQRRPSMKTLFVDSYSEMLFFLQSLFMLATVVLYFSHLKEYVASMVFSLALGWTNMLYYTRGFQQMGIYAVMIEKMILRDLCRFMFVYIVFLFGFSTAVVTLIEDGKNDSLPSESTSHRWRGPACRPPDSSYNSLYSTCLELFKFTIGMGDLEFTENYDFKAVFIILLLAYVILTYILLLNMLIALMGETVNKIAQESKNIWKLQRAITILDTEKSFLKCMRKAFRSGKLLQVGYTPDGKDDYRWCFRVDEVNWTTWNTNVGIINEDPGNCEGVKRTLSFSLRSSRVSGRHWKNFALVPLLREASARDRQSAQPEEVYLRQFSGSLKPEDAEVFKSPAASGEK

Broadly, the ED50 is the dose at which the effect has come halfway, by size or by number of responders. Take `COCCn1c(C)c(C)s/c1=N\C(=O)C1C(C)(C)C1(C)C`: the median effective dose (ED50) in the data set listed under Rattus norvegicus [1] is 1.96 µmol/kg; in the data set with Rattus norvegicus [2] it was 12 µmol/kg; in the data set filed under Rattus norvegicus [3], 12.9 µmol/kg; in the data set listed under Rattus norvegicus [4], 10.4 µmol/kg.
As a reminder, the Ki is the equilibrium dissociation constant of an inhibitor or competing ligand from its target. On to `CC1=CC[C@@H]2[C@@H](C1)c1c(OC(=O)CCCN3CCOCC3)cc(C(C)(C)CCCCC#N)cc1OC2(C)C`, for which the Ki was determined as 0.011 µM at Cannabinoid receptor 2 [5] and 0.004 µM on Cannabinoid receptor 1 [6]. Besides, the Ratio Ki in the data set filed under Homo sapiens is 0.36.
A word on the EC50: it is the concentration giving half of the maximal effect. What is called AUC(0-t) is exposure summed from dosing to a finite time, without extrapolation to infinity. A low value points to less exposure. Broadly, the Cmax is the maximum level reached in the sampled fluid or tissue. With `Cc1nc(N2CCN(C)CC2)c2nc(-c3ccccc3Cl)n(C(C)CO)c2n1` (centres undefined), the half-maximal effective concentration (EC50) on Cannabinoid receptor 2 [7] was 0.0224 µM; on Cannabinoid receptor 1 [10] it was greater than 100 µM. Moreover, the AUC(0-t) at 24 h in data set [8] is 44.5 µg·h/mL. Further, in data set [9], the highest level (Cmax) was 7.54 µg/mL.
Consider `CCCCC/C=C\C/C=C\C/C=C\C/C=C\CCCC(=O)OCCN`, for which the inhibitory constant (Ki) on Cannabinoid receptor 1 [11] came to 0.912 µM.
In the case of `CN(C)CCNc1cnn(C2CC(C)(C)CC(C)(C)C2)c(=O)c1Br`, the Ki came to 7.41 µM on Cannabinoid receptor 1 [12] and 0.042 µM on Cannabinoid receptor 2 [14]. Also, at Cannabinoid receptor 1 [13], the EC50 turned out to be 0.82 µM.
Regarding `O=C(NCc1ccncc1)c1cnc(Nc2cccc(Cl)c2)nc1C(F)(F)F`, the results for the half-maximal effective concentration (EC50) at Cannabinoid receptor 2 [15] and on Cannabinoid receptor 1 [16] were 0.05 µM and greater than 0.03 µM, respectively.
`O=C(NC1(c2ccccn2)CCC1)C1=NN(c2c[n+]([O-])ccn2)C2C1C[C@@H]1C[C@H]21` (some centres undefined): the EC50 at Cannabinoid receptor 2 [17] stood at 0.032 µM. In addition, the IC50 on Cannabinoid receptor 1 [18] was greater than 50 µM.
Turning to `CN1CCCCC1Cn1cc(C(=O)c2cc([N+](=O)[O-])ccc2I)c2ccccc21` (racemic), the Ki was found to be 0.28 µM on Cannabinoid receptor 1 [19], 0.58 µM at Cannabinoid receptor 1 [20] and 0.0071 µM on Cannabinoid receptor 2 [21]. Besides, the concentration giving a half-maximal response (EC50) on Cannabinoid receptor 2 [22] was 0.216 µM.
For orientation: clearance means a measure of how efficiently the substance is removed, as volume per time. Higher therefore signals efficient removal. Consider `Cn1c(C2(C)CC2)c/c(=N\C(=O)c2cc(C(F)(F)F)ccc2OCC(C)(C)O)n1C[C@H]1CCCO1`, for which the concentration for a half-maximal effect (EC50) on Cannabinoid receptor 2 [23] is 0.00047 µM. This compound also gave a clearance in data set [24] of 1.8 L/h/kg. Moreover, the IC50 on Cannabinoid receptor 1 [18] was greater than 27 µM. The Ratio Ki in the data set filed under Homo sapiens is greater than 57000.
As to `CCCCC/C=C\C/C=C\C/C=C\C/C=C\CCCC(=O)NCCO` [ANANDAMIDE], the EC50 in data set [25] came to 0.63 µM.
At Cannabinoid receptor 1 [26], `CCCCCCC(C)(C)c1cc(OC)c([C@H]2C=C(CO)[C@H]3C[C@@H]2C3(C)C)c(OC)c1` came in with an inhibition constant (Ki) greater than 10 µM.
